Laboratory results: US5753656A, “Method for treating spinocerebellar degeneration” (Suntory Limited, priority 1994, dated 1998)
“Also recorded” adds a separate entry of the source. Structures can show the parent of a compound that is named as a salt.

Tests used:
[1] = test system: Machado-Joseph disease (patients); assay: Double-blind crossover trial of BH4: neurological examination; type: in vivo, humans; settings: 1 mg/kg once daily, 10 days
Experimental: (§1) To 5 patients with Machado-Joseph disease listed in Table 1, a placebo (ascorbic acid) and BH4 were administered in a double-blind clinical trial with the procedure as follows:
(§2) Three patients from three families diagnosed as "clinically definite family" and two patients from two families diagnosed as "probable family" according to the diagnostic criteria by Sakai (Sakai, T., ditto) were selected.
(§3) The patients received 1 mg/kg(b.w.) of BH4 or ascorbic acid in capsules once daily, after lunch. The chemical form of BH4 given was BH4 dihydrochloride in Cases 1 to 3 and 5 and (6R,S)-L-erythro-5, 6,7,8-tetrahydrobiopterin dihydrochloride in Case 4.
The examination was performed in respect of muscle tonus of the extremities, deep reflexes, severity of dystonia, disturbance of stationary balance on standing, finger-to-nose test, finger tapping test, diadochokinetic test, heel-to-knee tapping test, and dysarthria.
(§4) A double-blind, placebo-controlled crossover design was adopted.
(§5) Data were analyzed using paired t-test.

[2] = test system: Machado-Joseph disease (patients); assay: Double-blind crossover trial of BH4: subjective improvement; type: in vivo, humans; settings: 1 mg/kg once daily, 10 days
Experimental: as §1, §2, §3
Each patient was asked with respect to six symptomatic parameters: dysarthria, dysphagia, disturbance of dexterity, disturbance of stationary balance on standing, disturbance of gait, and overall sense of general well-being.
as §4, §5

[3] = test system: Machado-Joseph disease (patients); assay: Double-blind crossover trial of BH4: overall conclusion on neurologic symptoms; type: in vivo, humans; settings: 1 mg/kg once daily, 10 days, oral capsules
Experimental: as §1, §2, §3
Each patient was assessed by the following three methods:
as §4, §5

[4] = Acute oral toxicity (LD50) in rats; type: in vivo
Source text: As the active ingredients provided by the present invention for treatment of spinocerebellar degeneration, (6R)-L-erythro-5,6,7,8-tetrahydrobiopterin (BH4) and its salts are most preferable, but analogous compounds such as (6R,S)-5,6,7,8-tetrahydrobiopterin, 1',2'-diacetyl-5, 6,7,8-tetrahydrobiopterin, sepiapterin, 6-methyl-5,6,7,8-tetrahydropterin or 6-phenyl-5,6,7,8-tetrahydropterin and their salts may also be acceptable. However, needless to say, BH4 which naturally exists in the body is preferable. […] The other compounds belonging to formula (I) likewise have little or no acute toxicity.

[5] = KOKAI No. 25323/84; cited from earlier work

C[C@H](O)[C@H](O)[C@H]1CNc2nc(N)[nH]c(=O)c2N1 [BH4, (6R)-L-erythro-5,6,7,8-tetrahydrobiopterin]
Neurological parameters, overall result [1]: none exhibited a statistically significant improvement | Subjective symptoms, overall result [2]: none showed a statistically significant improvement | Effect on neurologic symptoms of Machado-Joseph disease, conclusion [3]: remarkable therapeutic efficacy; also recorded: effective in improving neurologic symptoms | Effect on neurologic symptoms of Machado-Joseph disease, conclusion ([3]; listed as tetrahydrobiopterin): remarkable amelioration of the neurologic symptoms

C[C@H](O)[C@H](O)[C@H]1CNc2nc(N)[nH]c(=O)c2N1 [BH4 dihydrochloride]
Acute oral toxicity, assessment in words [4]: practically non-toxic | LD50 ([4]; rat, in vivo): > 2000 mg/kg

C[C@H](O)[C@H](O)C1CNc2nc(N)[nH]c(=O)c2N1 (stereo partly drawn) [(6R,S)-5,6,7,8-tetrahydrobiopterin]
Toxicity as seen in the treatment of patients with Parkinson disease [5]: only slightly toxic
